From patent US4452814A, “Nitrosourea derivatives” (priority 1981, dated 1984)

Columns and labels:
[1] = system: experimental leukemia and tumors; settings: wide variety of experimental leukemia and tumors; cited from earlier work
[2] = Acute toxicity (LD50) in BDF1 male mice, i.p. or i.v., Litchfield-Wilcoxon's method; format: in vivo; settings: BDF1 male mice about 6 weeks old, observed after 21 days
From the text: The nitrosourea derivatives of formulae (I), (II) and (III) according to this invention are further characterized by their low toxicity. Thus, acute toxicity represented by LD50 of some typical compounds of formula (I), when administered intraperitoneally (i.p.) or intravenously (i.v.) to BDF1 male mice aged about 6-weeks old and observed after the lapse of 21 days according to Litchfield-Wilcoxon's method, is as follows: […]

[3] = system: Leukemia L 1210 cells; assay: Antileukemic activity on Leukemia L 1210 in mice (i.p. inoculated, compound i.p.); format: in vivo, Male BDF1 mice; settings: for Mean survival days, treated: control 7.7
Method: Antileukemic activity of a typical nitrosourea derivative of formula (I) according to this invention was tested on Leukemia L 1210 in mice, details of which are given below.
Male BDF1 mice, aged about 7 weeks old and weighing 22±1 g were used in groups of five animals for each test.
Leukemia L 1210 cells were inoculated intraperitoneally in a concentration of 1×10^6 cells/0.05 ml/mouse.
The test compound was dissolved in a physiological salt solution to give a series of solutions in predetermined concentrations and 0.1 ml of the each solution was administered intraperitoneally to each mouse once a day from the 24th hour after the tumor cell inoculation for 3 consecutive days. The antileukemic activity of the test compound was assessed by mean survival days and percentage increase in life-span. The percentage increase in life-span (ILS) was calculated as follows: [formula] T: The mean survival days of the treated animals C: The mean survival days of the untreated animals
The control test for this purpose was carried out in the same way as that used for the test compound except that 0.1 ml of the physiological salt solution was administered in place of the solution of the test compound.

[4] = 0.5 mg/kg i.p. once a day for 3 days
[5] = 1 mg/kg i.p. once a day for 3 days
[6] = 2 mg/kg i.p. once a day for 3 days
[7] = 8 mg/kg i.p. once a day for 3 days
[8] = 16 mg/kg i.p. once a day for 3 days

O=NN(CCCl)C(=O)N[C@H]1[C@H](O)CCC[C@@H]1O [DONU, 1-(2-chloroethyl)-3-(1,3/2N-dihydroxycyclohexyl)-1-nitrosourea]
antitumor activity, in words [1]: broad spectrum of antitumor activity

O=NN(CCCl)C(=O)N[C@@H]1O[C@H](CO)[C@@H](O)[C@H](O)[C@H]1O [GANU, 1-(2-chloroethyl)-3-(β-D-glucopyranosyl)-1-nitrosourea]
antitumor activity, in words [1]: broad spectrum of antitumor activity

NC(=O)C1CCCN1C(=O)N(CCCl)N=O (stereo not drawn) [N-[N'-(2-chloroethyl)-N'-nitrosocarbamoyl]-proline amide]
LD50 ([2]; i.p.): 219.6 mg/kg | LD50 ([2]; i.v.): 195.4 mg/kg

NC(=O)CNC(=O)N(CCCl)N=O [N-[N'-(2-chloroethyl)-N'-nitrosocarbamoyl]glycine amide]
LD50 ([2]; i.v.): 22.4 mg/kg | LD50 at 504 h ([2]; mouse, in vivo, ip): 21.2 mg/kg | ILS (percentage increase in life-span) [3, 4]: 32.5% | Mean survival days, treated [3, 4]: 10.2 days | ILS (percentage increase in life-span) [3, 5]: 37.7% | Mean survival days, treated [3, 5]: 10.6 days | ILS (percentage increase in life-span) [3, 6]: 81.8% | Mean survival days, treated [3, 6]: 14.0 days | ILS (percentage increase in life-span) [3, 7]: > 679.2% | Mean survival days, treated [3, 7]: > 60.0 days | ILS (percentage increase in life-span) [3, 8]: > 679.2% | Mean survival days, treated [3, 8]: > 60.0 days

CN(CC(N)=O)C(=O)N(CCCl)N=O [N-[N'-(2-chloroethyl)-N'-nitrosocarbamoyl]sarcosine amide]
LD50 ([2]; i.p.): 392.0 mg/kg | LD50 ([2]; i.v.): 426.6 mg/kg
